Values quoted from earlier work as cited in patent US20070286875A1 (Morton Grove Pharmaceuticals, Inc., priority 2006, published 2007).

How the values were obtained:
[1] = 10 mg once daily with erythromycin, cimetidine, ketoconazole

CCOC(=O)N1CCC(=C2c3ccc(Cl)cc3CCc3cccnc32)CC1 [loratadine, ethyl 4-(8-chloro-5,6-dihydro-11H-benzo[5,6]cyclohepta[1,2-b]pyridin-11-ylidene)-1-piperidinecarboxylate]
changes in safety profile on co-administration [1]: no clinically relevant changes
binding to peripheral versus central nervous system H1-receptors (H1-receptors): preferential binding to peripheral
